In general, IC50 refers to the concentration that gives 50% inhibition. Read a high IC50 as a need for much substance.

The values below come from patent publication US9073880B2, “2-(2-phenylethenyl) 1,3-benzodiazepine derivatives useful for the treatment of cancer” (Yissum Research Development Company of the Hebrew …, priority 2010, dated 2015).

Holding throughout (format): cell-based
Experiment [1] has as its system human multiple myeloma MM1S cells. Nature of the experiment: Cell proliferation, MM1S (Example 4). Conditions: MM1.S, compound in 2-hydroxypropyl-β-cyclodextrin. The method, then:
(§1) Human ovary cancer A2780 cells lines were seeded at a density of 5000 cells/well, human melanoma A375 cells were plated at a density of 2,500 cells/well, human colon carcinoma HCT15 cells were plated at a density of 3,000 cells/well, human prostate carcinoma PC3 cells were plated at a density of 1,500 cells/well, human breast carcinoma MCF7 cells were plated at a density of 5,000 cells/well, human breast carcinoma MDA MB 468 cells were plated at a density of 6,000 cells/well, human myeloma U266, RPMI8226 and CAG cells were plated at a density of 10,000 cells/well. All cells were plated in 96-well plates in 90 μl growth medium containing 10% FCS, 100 units/ml penicillin and 100 μg/ml streptomycin. Compound 3 was added a day later in […] of 1% DMSO in DDW to obtain final concentrations of 0, 0.1, 0.3, 1, 3, and 10 μM. The final concentration of DMSO (0.1% DMSO) was kept constant in all samples. Following exposure of the cells to compound 3 for 72 hours at 37° C., adhered cells were fixed in 0.5% gluteraldehyde in medium for 10 min, washed three times with DDW, once with 0.1M sodium borate buffer pH 8.5 and stained with 1% methylene blue dissolved in 0.1M borate buffer solution for 60 min. Excess dye was washed out and cell-bound dye was eluted with 200 μl/well of 0.1M HCl. The optical density values were read at 630 nm in ELISA plate reader. Non-adhered cells were exposed to WST-1 reagent for 5 hours following 72 hours treatment with the inhibitors, and optical density values were read at 630 nm in ELISA plate reader. The data was analyzed in Microsoft Excel, using the vehicle control as 100% proliferation. The assays were performed in triplicates. The values of IC50 were derived from the dose-dependent growth curves obtained.
(§2) Cell proliferation assay was performed as described in Example 2. The following cell line were plated in 96-well plates in 90 μl growth medium containing 10% FCS, 100 units/ml penicillin and 100 μg/ml streptomycin: human ovary cancer A2780 cells (4500 cells/well), human melanoma A375 (1500 cells/well) and YUMAC (2500 cells/well) cells, human colon carcinoma HCT15 (3000 cells/well) and HCT116 (2000 cells/well) cells, human prostate carcinoma PC3 (3000 cells/well), PC3MM2 (3500 cells/well) and DU145 (300 cells/well) cells, human hepatocarcinoma HepG2 (3000 cells/well), human Ewing sarcoma SK-ES-1 (4,500 cells/well), human glioblastoma U138MG (2,000 cells/well), human breast cancer T47D (4000 cells/well) and MDA-MB-468 (6000 cells/well) cells, human small cell lung carcinoma NCI-H1975 (5000 cells/well) cells, human osteosarcoma Saos-2 (5000 cells/well) cells, human pancreatic cancer ASPC (2500 cells/well) cells, human bladder carcinoma T24P (1000 cells/well) cells, human gastric cancer NCI-N87 (5000 cells/well) cells, human lymphoma KARPAS (5,000 cells/well) cells, human leukemia K562 (5,000 cells/well) cells and human multiple myeloma MM1S (10,000 cells/well), U266 (10,000 cells/well) and CAG (5,000 cells/well). Compounds 2-5 and 7-8 were added a day later in 10 μl of 0.7% 2-hydroxypropyl-β-cyclodextrin to obtain final concentrations of 0, 0.1, 0.3, 1, 3 and 10 μM.
Compounds 2-5 and 7-8 of the present invention were tested for their inhibitory potential in cell proliferation assay. Human ovary cancer A2780 cells, human melanoma A375 and YUMAC cells, human colon carcinoma HCT15 and HCT116 cells, human prostate carcinoma PC3, PC3MM2 and DU145 cells, human hepatocarcinoma HepG2 cells, human Ewing sarcoma SK-ES-1 cells, human glioblastoma U138MG cells, human breast cancer T47D and MDA-MB-468 cells, human small cell lung carcinoma NCI-H1975 cells, human osteosarcoma Saos-2 cells, human pancreatic cancer ASPC cells, human bladder cancer T24P cells, human gastric cancer cells, human lymphoma KARPAS cells, human leukemia K562 cells, and human multiple myeloma MM1S, CAG and U266 cells, were exposed to increasing concentrations of compounds 2-5 and 7-8. […]

Experiment [2] relates to human breast cancer MDA-MB-468 cells. Nature of the experiment: Cell proliferation, MDA-MB-468 (Example 4). Conditions: MDA-MB-468, breast cancer, compound in 2-hydroxypropyl-β-cyclodextrin. The procedure:
as §1
(§3) Cell proliferation assay was performed as described in Example 2. […]

The subject of experiment [3] is Human ovary cancer A2780 cells. Nature of the experiment: Cell proliferation, A2780 (Example 4). Conditions: compound in 2-hydroxypropyl-β-cyclodextrin. The method, then:
as §1, §3

The subject of experiment [4] is human hepatocarcinoma HepG2 cells. Description: Cell proliferation, HepG2 (Example 4). Conditions: compound in 2-hydroxypropyl-β-cyclodextrin. The procedure: as §1, §3
The next experiment has as its system human NCI-H1975 cells. Description: Cell proliferation, NCI-H1975 (Example 4). Conditions: NCI-H1975, SCLC, compound in 2-hydroxypropyl-β-cyclodextrin. The method, then:
as §1, §3

The subject of experiment [5] is human melanoma YUMAC cells. Nature of the experiment: Cell proliferation, YUMAC (Example 4). To be noted: compound in 2-hydroxypropyl-β-cyclodextrin. The method, then: as §1, §2
(§4) Compounds 2-5 and 7-8 of the present invention were tested for their inhibitory potential in cell proliferation assay. […]

For experiment [6], the system named is human osteosarcoma Saos-2 cells. Description: Cell proliferation, Saos-2 (Example 4). Conditions: Saos-2, osteosarcoma, compound in 2-hydroxypropyl-β-cyclodextrin. The method, then:
as §1, §3

Experiment [7] relates to human colon carcinoma HCT116 cells. Nature of the experiment: Cell proliferation, HCT116 (Example 4). Conditions: HCT-116, HCT116, colon cancer, compound in 2-hydroxypropyl-β-cyclodextrin. The procedure:
as §1, §2, §4

The subject of experiment [8] is human prostate carcinoma PC3MM2 cells. Description: Cell proliferation, PC3MM2 (Example 4). Conditions: PC3MM2, prostate cancer, compound in 2-hydroxypropyl-β-cyclodextrin. The procedure: as §1, §3
Experiment [9] has as its system human gastric cancer NCI-N87 cells. Description: Cell proliferation, NCI-N87 (Example 4). To be noted: compound in 2-hydroxypropyl-β-cyclodextrin. The procedure: as §1, §3
Experiment [10] relates to human Ewing sarcoma SK-ES-1 cells. Nature of the experiment: Cell proliferation, SK-ES-1 (Example 4). Conditions: SK-ES1, SK-ES-1, Ewing sarcoma, compound in 2-hydroxypropyl-β-cyclodextrin. The method, then: as §1, §3
The subject of experiment [11] is human prostate carcinoma DU145 cells. Nature of the experiment: Cell proliferation, DU145 (Example 4). To be noted: DU-145, DU145, prostate cancer, compound in 2-hydroxypropyl-β-cyclodextrin. The method, then: as §1, §3
The subject of experiment [12] is human glioblastoma U138MG cells. Nature of the experiment: Cell proliferation, U138MG (Example 4). Conditions: U138-MG, compound in 2-hydroxypropyl-β-cyclodextrin. The method, then: as §1, §3
Experiment [13] concerns human pancreatic cancer ASPC cells. Description: Cell proliferation, ASPC (Example 4). Conditions: compound in 2-hydroxypropyl-β-cyclodextrin. The method, then:
as §1, §2, §4

Experiment [14] concerns human leukemia K562 cells. Nature of the experiment: Cell proliferation, K562 (Example 4). To be noted: compound in 2-hydroxypropyl-β-cyclodextrin. The procedure:
as §1, §2, §4

Experiment [15] has as its system human bladder carcinoma T24P cells. Nature of the experiment: Cell proliferation, T24P (Example 4). To be noted: compound in 2-hydroxypropyl-β-cyclodextrin. The method, then: as §1, §3
In experiment [16] the test system is human multiple myeloma CAG cells. Nature of the experiment: Cell proliferation, CAG (Example 4). Conditions: compound in 2-hydroxypropyl-β-cyclodextrin. The method, then:
as §1, §3

Experiment [17] concerns human lymphoma KARPAS cells. Description: Cell proliferation, KARPAS (Example 4). Conditions: compound in 2-hydroxypropyl-β-cyclodextrin. The procedure: as §1, §3
The test system of experiment [18] is human breast cancer T47D cells. Description: Cell proliferation, T47D (Example 4). To be noted: compound in 2-hydroxypropyl-β-cyclodextrin. The method, then: as §1, §3

As to `N#C/C(=C\c1cc(O)c(O)c(I)c1)c1ncc2cc(O)c(=O)c(O)c-2s1` [Compound 2], the half-inhibitory concentration (IC50) is 2000 nM in experiment [1], 1200 nM in experiment [2], 600 nM in experiment [3] and 2800 nM in experiment [4].
Turning to `O=c1c(O)cc2cnc(/C=C/c3cc(O)c(O)c(I)c3)sc-2c1O` [Compound 4], the IC50 came to 1100 nM in the experiment with human NCI-H1975 cells; 500 nM in [5]; 2000 nM in [6]; 700 nM in experiment [1]; 2200 nM in experiment [2]; 700 nM in experiment [7]. In addition, the IC50 in experiment [8] came to 900 nM; in experiment [3], 300 nM; in [9], 4800 nM; in [4], 2700 nM; in experiment [10], 200 nM; in experiment [11], 2000 nM. The IC50 worked out at 300 nM in experiment [12]; 18500 nM in [13]; 900 nM in experiment [14]; 3200 nM in experiment [15]; 3000 nM in experiment [16]; 1500 nM in [17]. Further, the half-inhibitory concentration (IC50) in [18] was 700 nM.
With `O=c1c(O)cc2cnc(/C=C/c3cc(O)c(O)cc3Br)sc-2c1O` [Compound 7], the concentration for half-maximal inhibition (IC50) with human NCI-H1975 cells stood at 2600 nM; in [5], 500 nM; in experiment [6], 2700 nM; in experiment [1] it was 200 nM; in experiment [7] it was 1400 nM; in [9] it was 8400 nM. The IC50 in [10] turned out to be 200 nM; in experiment [11] it was 2300 nM; in experiment [12] it was 800 nM; in [13], 13300 nM; in experiment [14] it was 1800 nM; in experiment [15], 4500 nM. The IC50 in experiment [16] is 4900 nM; in experiment [17] it was 1800 nM.
Take `O=c1c(O)c2sc(/C=C/c3cc(O)c(O)c(Br)c3)ncc-2c(Br)c1O` [Compound 8]: the IC50 in experiment [5] was 500 nM; in experiment [1], 500 nM; in experiment [7], 800 nM; in experiment [13], 17700 nM; in experiment [14], 800 nM.
